{"source": "patent US20110244058A1", "about": "“Compositions and methods for treatment of pulmonary diseases and conditions” (priority 2008, published 2011)", "remark": "listed apart in the source", "key": {"[1]": {"tested_on": "mice with LPS-induced sepsis", "details": "eight mice per group; intranasal drip pulmonary delivery at 0, 6, 23.5 hr; LPS 50 μg at 24 hour; control three out of eight died", "protocol": "In all three groups, LPS-induced sepsis was caused by delivery of highly concentrated LPS (50 μg) at 24 hour. […] In the steroid-treated mice, an inhaled corticosteroid (ICS) was delivered for 5 minutes through intranasal drip pulmonary delivery at 0 hr, 6 hr, and 23.5 hr. In the control group, no drug was administered prior to inducing LPS sepsis."}, "[2]": {"tested_on": "Brown Norway (BN) rats sensitized to ragweed pollen extract", "details": "aerosolized 0.05% brimonidine or 0.005% dexmedetomidine for 10 minutes before ragweed extract, FIG. 3", "method": "The control group rats were pretreated with aerosolized saline and administered aerosolized saline. The saline group rats were pretreated with aerosolized saline, then exposed to aerosolized ragweed extract for 10 minutes.\nAt 10 minutes after completion of the allergen exposure, rats were anesthetized and exsanguinated, and their lungs were lavaged with 50 ml of buffer solution. The resulting bronchoalveolar lavage (BAL) fluid was centrifuged to remove the cells, and the supernatants were analyzed for albumin concentration using an ELISA assay for rat albumin."}, "[3]": {"experiment": "Ionization as a function of pH", "format": "physicochemical", "from_the_text": "At a lower pH and a lower lipophilicity, bronchial mucosal membrane retention time is maximized and mucosal penetration is reduced. More of a drug is washed away and less is absorbed into lung parenchyma increasing the surface mucosal effect. The higher the lipophilicity, the greater is the selective α-2 agonist's penetration through the lipophilic mucosal cell membranes. This is because at a more alkaline pH, more of the compound is present in a non-ionized form.\nWhen a selective α-2 agonist is lipophilic, it becomes highly ionized as it enters the distal esophagus and stomach. […] Thus, it is very poorly absorbed in lipophilic membranes of the gastrointestinal tract and therefore, results in less systemic absorption."}, "[4]": {"from_the_text": "The terms “salt” and “constituent of a balanced salt solution” are used interchangeably for the purposes of the present invention. They are a subset of agents that improve solubility of the inventive formulations."}, "[5]": {"from_the_text": "The doses are estimates only, assuming less than 20% nebulized DTL (dose to lung).", "remark": "listed apart in the source"}, "[6]": {"tested_on": "α-2 over α-1 adrenergic receptors", "details": "cited from earlier work"}, "[7]": {"details": "cited from earlier work"}}, "note": "Read-outs that look alike come from different tables or passages of the source."}
{"smiles": "Brc1c(NC2=NCCN2)ccc2nccnc12.O=C(O)C(O)C(O)C(=O)O", "note": "[brimonidine, 5-bromo-6-(2-imidazolin-2-ylamino)quinoxaline D-tartrate]", "values": [{"measurement": "deaths because of LPS-induced sepsis", "setting": "[1]", "result": "no animals died"}, {"measurement": "BAL albumin concentration after ragweed exposure", "setting": "[2]", "result": "no apparent protective effect"}]}
{"smiles": "Cc1cccc([C@H](C)c2cnc[nH]2)c1C", "note": "[dexmedetomidine]", "values": [{"measurement": "ionized", "setting": "[3]; in pharynx (pH is about 6.8)", "result": "about 65%"}, {"measurement": "ionized", "setting": "[3]; in stomach (pH of less than 5.0)", "result": "~100", "unit": "%"}, {"measurement": "ionized", "setting": "[3]; lungs and airways, pH about 7.4 to 7.8", "result": "10-23%"}, {"measurement": "ionized", "setting": "[3]; pH of 6.7", "result": "about 65%"}, {"measurement": "non-ionized", "setting": "[3]; pH of 6.7", "result": "about 35%"}, {"measurement": "ionized", "setting": "[3]; pH of 8.0 or greater", "result": "about 10%"}, {"measurement": "non-ionized", "setting": "[3]; pH of 8.0 or greater", "result": "about 90%"}, {"measurement": "max soluble concentration, BSS solution", "setting": "[4]; pH 7", "result": "≧0.10%"}, {"measurement": "soluble concentration with constituents of a balanced salt solution", "setting": "[4]; pH 7.1", "result": "≥ 0.1", "unit": "%"}, {"measurement": "wheeze-auscultation score", "setting": "[5]; nebulized 0.03% at pH 5.0, reduced from baseline 10, scale for mild asthma", "result": "about 5"}, {"measurement": "lung effects (wheeze and airway resistance versus baseline)", "setting": "[5]; nebulized 0.03% at pH 8.0, versus pH 5.0", "result": "the lung effects are greater"}, {"measurement": "max soluble concentration", "setting": "pH 6", "result": 0.195, "unit": "%"}, {"measurement": "max soluble concentration", "setting": "pH 6.4", "result": 0.060, "unit": "%"}, {"measurement": "max soluble concentration", "setting": "pH 7", "result": 0.023, "unit": "%"}, {"measurement": "max soluble concentration", "setting": "pH 7.4", "result": 0.015, "unit": "%"}, {"measurement": "max soluble concentration", "setting": "pH 8", "result": 0.013, "unit": "%"}, {"measurement": "BAL albumin concentration after ragweed exposure", "setting": "[2]", "result": "albumin levels similar to those of control rats"}, {"measurement": "solubility", "setting": "physchem; pH 6, aqueous buffer", "result": 1950, "unit": "µg/mL"}, {"measurement": "solubility", "setting": "physchem; pH 6.4, aqueous buffer", "result": "~600", "unit": "µg/mL"}, {"measurement": "solubility", "setting": "physchem; pH 7, aqueous buffer", "result": 224, "unit": "µg/mL"}, {"measurement": "solubility", "setting": "physchem; pH 7.4, aqueous buffer", "result": "~150", "unit": "µg/mL"}, {"measurement": "solubility", "setting": "physchem; pH 8, aqueous buffer", "result": 134, "unit": "µg/mL"}, {"measurement": "α2/α1 selectivity", "setting": "[6]", "result": "over 1,500"}]}
{"smiles": "CNC1(c2ccccc2Cl)CCCCC1=O", "note": "(stereo not drawn) [ketamine]", "values": [{"measurement": "ionization", "setting": "[3]; pH of about 8.5", "result": "about 10%"}, {"measurement": "ionization", "setting": "[3]; physiologic pH", "result": "over 60%"}, {"measurement": "plasma level at which dissociative changes have been documented", "setting": "[7]; in vivo", "result": "≤ 1000", "unit": "ng/mL"}, {"measurement": "plasma level at which sedation occurs", "setting": "[7]; in vivo", "result": "about 9000 μg/L"}, {"measurement": "plasma levels with prior art inhalation forms", "setting": "[7]; inhalation", "result": "over 800 ug/L"}]}
